“Also recorded” adds a separate entry of the source.
Experiments:
Format in all cases: cell-based
Hela cells [1] = assay: Cell phototoxicity experiment, 635 nm laser, MTT assay; conditions: for Hela cells killed: 160 nM, exposed to red light (635 nm, 20 mW/cm^2, 1000 S), FIG. 10b
Procedure: (§1) Cultured Hela cells were digested and percussed with 0.25% trypsin, made into a single cell suspension, adjusted to a cell count of about 2×10^4/mL, inoculated into a 96-well culture plate with 200 uL/well, and cultured in an incubator with a 5% CO2 environment at 37° C. After cells were adherent, the supernatant culture solution was discarded, different concentrations of photosensitizers (hematoporphyrin derivative HpD, HB, and hypocrellin derivative HB-1) were added strictly in dark according to the experiment design, and further incubated in an incubator with a 5% CO2 environment at 37° C. for another 1 h. Then the 96-well culture plate was perpendicularly irradiated with uniform semiconductor laser beam at a wavelength of 635 nm with the power density adjusted to 20 mW/cm^2 for 1000 S. At the same time, a blank group was arranged for each 96-well culture plate, and 6 wells were arranged for each condition. After irradiation, the culture plate was further incubated in an incubator with a 5% CO2 environment at 37° C. for another 24 h, and then the cell survival rate was detected. The survival rate of cells was detected by MTT assay. 20 uL of MTT (prepared with PBS, concentration: 5 mg/mL) was added to each well, and further incubated in an incubator with a 5% CO2 environment at 37° C. for another 4 h. Then the incubation was terminated. The supernatant was carefully pipetted from the wells and discarded, and then 150 uL of dimethyl sulfoxide (DMSO) was added to each well. The violet crystal was fully dissolved by vibration with a microvibrator for 10 min. The optical density value (OD value) of each well was detected by an ELIASA at 570 nm wavelength to calculate the cell survival rate according to the following formula: cell survival rate=OD value of the experimental group/OD value of the blank group×100%.

Hela cells [2] = assay: Dark cytotoxicity experiment, MTT assay; conditions: in dark
Procedure: as §1, with “and further incubated in an incubator with a 5% CO2 environment at 37° C. for another 1 h. Then the 96-well culture plate was perpendicularly irradiated with uniform semiconductor laser beam at a wavelength of 635 nm with the power density adjusted to 20 mW/cm^2 for 1000 S. At the same time, a blank group was arranged for each 96-well culture plate, and 6 wells were arranged for each condition. After irradiation, the culture plate was further incubated in an incubator with a 5% CO2 environment at 37° C. for another 24 h, and then the cell survival rate was detected.” left out

Hela cells [3] = assay: Phototoxicity experiment, 671 nm laser, MTT assay; conditions: 200 nM, 50 mW/cm^2, 20 min, FIG. 16b
Procedure: Phototoxicity experiment: Hela cells were incubated together with different concentrations of the compound I-1, the HB and the Ce6 respectively, further incubated in an incubator with a 5% CO2 environment at 37° C. for another 1 hour. After laser irradiation with a power density of 50 mW/cm^2 at a wavelength of 671 nm for 20 min, the Hela cells were further cultured and incubated in an incubator with a 5% CO2 environment at 37° C. for another 24 h. The survival rate of cells in each group was detected by MTT assay.

Hela cells [4] = assay: Phototoxicity experiment, 808 nm laser, MTT assay; conditions: 300 nM, 20 mW/cm^2, 20 min, FIG. 18b
Hela cells [5] = assay: Dark toxicity experiment of polysubstituted derivatives, MTT assay; conditions: in dark; for cytotoxicity (dark toxicity): Hela cells, FIG. 16a / FIG. 18a
Procedure: Dark toxicity experiment: Hela cells at a certain concentration were inoculated into a 96-well plate, and cultured for 12-24 h. […] […] The survival rate of cells in each group was detected by MTT assay.
Dark toxicity experiment: Hela cells at a certain concentration were inoculated into a 96-well plate, and cultured for 12-24 h. […] […] The survival rate of cells in each group was detected by MTT assay. […] After laser irradiation with a power density of 20 mW/cm^2 at a wavelength of 808 nm for 20 min, the Hela cells were further cultured and incubated in an incubator with a 5% CO2 environment at 37° C. for another 24 h. The survival rate of cells in each group was detected by MTT assay.

hematoporphyrin derivative [HpD]
Hela cells killed (Hela cells [1]): about 20%

COc1c(O)c2c(=O)cc(OC)c3c4c(OC)cc(=O)c5c(O)c(NCCOCCO)c6c(c(c1C(/C(C)=N/CCOCCO)C(C)=C6)c23)c54 (stereo not drawn) [HB-1]
death of Hela cells after incubation with the photosensitizer (Hela cells [2]; 10 uM, half an hour): significant death of the Hela cells are not seen | cytotoxicity (dark toxicity) (Hela cells [2]; Hela cells, FIG. 10a / FIG. 11a): low cytotoxicity | Hela cells killed (Hela cells [1]): more than 90%

C=Cc1c(C)c2cc3nc(c(CC(=O)O)c4[nH]c(cc5nc(cc1[nH]2)C(C)=C5CC)c(C)c4C(=O)O)[C@@H](CCC(=O)O)[C@@H]3C [Ce6, dihydroporphin Ce6, reference compound]
Hela cells killed (Hela cells [3]): about 30% | Hela cells killed (Hela cells [4]): about 20%

COC1=CC(=O)c2c(O)c(OC)c3c4c2c1c1c(OC)c2c(c5c6c(c(c4c15)C=C(C)C3C(C)=O)NCCN6)=NC(C(=O)O)CS2 (stereo not drawn) [II-2]
cytotoxicity (dark toxicity) (Hela cells [5]): very low cytotoxicity

CCCCNc1c(O)c2c3c(c(OC)c4c5c6c(c(O)c(OC)c7c6c(c1C=C(C)C7C(C)=O)c42)C(=O)C=C5OC)SCCN=3 (stereo not drawn) [I-1]
death of Hela cells after incubation with the photosensitizer (Hela cells [5]; 10 uM, half an hour): significant death of the Hela cells are not seen | cytotoxicity (dark toxicity) (Hela cells [5]): very low cytotoxicity; also recorded: low cytotoxicity | Hela cells killed (Hela cells [3]): more than 90%

hypocrellin B [HB]
Hela cells killed (Hela cells [1]): about 20% | phototoxicity / photodynamic effect, in words (Hela cells [1]; Hela cells, compared with HB and HpD, FIG. 10-14): much poorer ability to photodynamically kill tumor cells
